Laboratory results: patent publication US10463664B2, “Inhibitors of HSV nucleotidyl transferases and uses therefor” (Saint Louis University, priority 2013, dated 2019)

Assays:
human RNaseH1 = target: T1, human RNaseH1 (Homo sapiens, UniProt O60930); conditions: Hu et al., 2013; cited from earlier work
T1 construct: hexahistidine; made in house; host or cells: E. coli
T1 sequence (O60930 1-286): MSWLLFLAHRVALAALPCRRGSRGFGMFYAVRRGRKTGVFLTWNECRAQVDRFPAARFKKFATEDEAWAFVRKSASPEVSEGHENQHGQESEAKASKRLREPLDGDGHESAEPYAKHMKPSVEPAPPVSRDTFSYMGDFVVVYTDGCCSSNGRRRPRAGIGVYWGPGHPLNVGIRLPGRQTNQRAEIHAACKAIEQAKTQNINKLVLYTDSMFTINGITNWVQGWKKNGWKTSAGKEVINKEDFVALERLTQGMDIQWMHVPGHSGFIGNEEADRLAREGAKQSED

HSV-1 strain KOS = assay: Resistance evolution by passage of HSV-1 KOS in presence of inhibitor; assay type: cell-based, herpes simplex virus 1; conditions: compared with unselected KOS
Description: Cultures were scraped and collected when virus-induced cytopathic effect was evident (24-72 h). […] This process was repeated three times, maintaining the independent lineages. […] Inhibition was determined by subtracting a lineage's titer in the presence of inhibitor from its titer in the presence of diluent control.

HFFs = assay: Neutral red cytotoxicity assay in HFFs (10 day, with plaque reduction assay); assay type: cell-based, human; conditions: 10 day assay
Description: HCMV plaque reduction EC50 and toxicity assays. Low passage primary HFFs were infected with HCMV strain AD169 in the presence of serial dilutions of the compounds from 0.032 to 100 μM. Ten days later the monolayers were stained with 1% neutral red solution in PBS. After rinsing, plaques were counted using a stereomicroscope and the EC50 was interpolated from the data. Cytotoxicity was measured using a plate-based assay in which compounds were added to HFFs at 0.032 to 100 μM. At the end of the incubation period, plates were stained for 1 h with a neutral red solution in PBS. The stain was then removed, the plates rinsed in PBS and dried, and dye internalized by viable cells was determined at OD550. CC50 values were interpolated from the data.
Compounds #41, 46, 49, 55, 56, and 59 and the FDA-approved, anti-HCMV drug ganciclovir were subsequently evaluated with plaque reduction and toxicity assays in HFFs. HFFs were infected with HCMV in the presence of serial dilutions of the compounds. After 10 days the cultures were stained with neutral red and plaques were counted. Compound cytotoxicity for uninfected cells was determined in the same manner except that neutral red uptake by viable cells was measured by optical density. […] The TI values for the five NTS inhibitors of HCMV ranged from 5 for compound #46 to 17 for #55 and 59. Therefore, NTS inhibitors can suppress HCMV replication in addition to inhibiting the HSVs.

HSV-2 = HSV-2 viral DNA replication (quantitative PCR, GE) versus infectious virus (PFU) in Vero cells; assay type: cell-based, herpes simplex virus 2; conditions: for Fold suppression GE / Fold suppression PFU: 24 h, relative to DMSO
Description: Quantitative PCR measurement of viral genome levels. Infected cell cultures were collected and virus and cells were pelleted by centrifugation for 30 min at 12,000 rpm. Total DNA was isolated from the pellets using a QIAamp DNA Mini Kit (Qiagen) according to the manufacturer's instructions. DNA concentration of each preparation was measured using a Nanodrop 2000 spectrophotometer. The primers and probe for real-time PCR were designed to amplify a 108 bp segment in the HSV-2 LAT region. […] PCR reactions were set up in 25 μL containing FastStart Universal Probe master mix containing Rox (Roche), 900 nM forward and reverse primers, 250 nM probe, and 5 μL template DNA preparation (˜30-100 ng total DNA). Quantification was performed in triplicate for each DNA preparation using an ABI model 7500 genetic analyzer (Applied Biosystems) with the following cycling parameters: 1 cycle at 50° C. for 2 min, 1 cycle at 95° C. for 10 min, 40 cycles at 95° C. for 15 s, and 60° C. for 1 min. For absolute quantification, 10^3 to 10^8 copies of plasmid pcDNA3.1(+)5′Flag-ICP0 was used to generate a standard curve. Data were analyzed using Sequence Detection System software (ABI), and HSV-2 genome equivalents number per nanogram of total DNA was calculated and used for comparison.
Viral replication was measured 24 hours post-infection by plaque assay, and DNA replication was measured using quantitative PCR against the LAT gene and expressed as genome-equivalents (GE). […] Two inhibitor concentrations were assessed for compounds #30 (60 and 20 μM) and #46 (20 and 10 μM).

in vitro = conditions: human
Outline: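 Primary HFF, 1.0×10^4/well, exposed 24 h to 0.78–100 μM compound in 1% DMSO. Viability read by MTT (0.25 mg/mL, 60 min, 570 nm) and by protease-release lysis luminescence. CC50 by non-linear fit of percent viability.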

[1] = MTT mitochondrial toxicity assay in Vero cells; assay type: cell-based; conditions: African green monkey, Vero cells, read-out: Vero cell toxicity MTT CC50
[2] = CytoTox-Glo cellular lysis assay in Vero cells; assay type: cell-based; conditions: African green monkey, Vero cells, read-out: Vero cell toxicity CTG CC50
Description: Quantitative toxicity measurements were conducted for all compounds that suppressed HSV replication by approximately 2 login or more at 5 μM plus a number of compounds with lesser inhibitory activity for comparison. Toxicity was assessed by measuring release of intracellular proteases into the culture medium due to cellular lysis. […] Consistent with the subjective assessments of toxicity, all compounds selected for quantitative toxicity assessment had CC50 values ≥50 μM by both the MTT and cellular lysis assays (Table 1).

Q: Which “Effect on RNase H1 (in words)” value (human RNaseH1) does the source give for `CC(C)c1ccc(O)c(=O)c(O)c1` [Compound 46, Beta-thujaplicinol] here?
A: no effect

Q: What about the “Sensitivity of inhibitor-selected lineages after 3 rounds of growth (in words)” value (HSV-1 strain KOS) of the same molecule?
A: remained as sensitive

Q: And the CC50 (HFFs)?
A: 6.7 µM

Q: And the “Fold suppression PFU/GE” value (HSV-2; 10 μM)?
A: 541.6

Q: And the “Fold suppression GE” value (HSV-2; 10 μM)?
A: 470 fold

Q: And the “Fold suppression PFU” value (HSV-2; 10 μM)?
A: 254536 fold

Q: What about the “Fold suppression PFU/GE” value (HSV-2; 20 μM) of the same molecule?
A: 538.2

Q: What about the “Fold suppression GE” value (HSV-2; 20 μM) of the same molecule?
A: 615 fold

Q: What about the “Fold suppression PFU” value (HSV-2; 20 μM) of the same molecule?
A: 331000 fold

Q: With `Nc1nc2c(ncn2COCCO)c(=O)[nH]1` [ACV, Acyclovir, reference compound] as the molecule, how does the CC50 at 24 h (in vitro) read?
A: > 100 µM

Q: What about the CC50 at 24 h [1] of the same molecule?
A: > 100 µM

Q: And the CC50 at 24 h [2]?
A: > 100 µM

Q: With `CC(=O)NC(CCc1ccc(Cl)c(Cl)c1)c1cccc(O)c(=O)c1` (stereo not shown) [Compound 55] as the molecule, how does the CC50 (HFFs) read?
A: 8 µM

Q: For `Cc1cc(C2CCCCC2)n(O)c(=O)c1` [Compound 41, Ciclopirox, reference compound], which CC50 at 24 h (in vitro) is on record?
A: > 100 µM

Q: And the CC50 at 24 h [1]?
A: > 50 µM

Q: And the “Sensitivity of inhibitor-selected lineages after 3 rounds of growth (in words)” value (HSV-1 strain KOS)?
A: remained as sensitive

Q: And the “Fold suppression PFU/GE” value (HSV-2; 10 μM)?
A: 62.0

Q: What about the “Fold suppression GE” value (HSV-2; 10 μM) of the same molecule?
A: 551 fold

Q: And the “Fold suppression PFU” value (HSV-2; 10 μM)?
A: 34159 fold

Q: What about the CC50 at 24 h [2] of the same molecule?
A: > 100 µM

Q: For `CC(C)=CCc1ccc(O)c(=O)cc1C(C)C` [Compound 49, Nootkatin], which CC50 (HFFs) is on record?
A: 6.7 µM

Q: Which “Fold suppression PFU/GE” value (HSV-2; 20 μM) does the source give for `CCOc1ccc(-c2c3cc(O)c(=O)cc-3oc3cc(O)c(O)cc23)cc1` [Compound 30] here?
A: 4.5

Q: And the “Fold suppression GE” value (HSV-2; 20 μM)?
A: 150 fold

Q: And the “Fold suppression PFU” value (HSV-2; 20 μM)?
A: 676 fold

Q: And the “Fold suppression PFU/GE” value (HSV-2; 60 μM)?
A: 143.7

Q: And the “Fold suppression GE” value (HSV-2; 60 μM)?
A: 247 fold

Q: And the “Fold suppression PFU” value (HSV-2; 60 μM)?
A: 35500 fold

Q: Which CC50 (HFFs) does the source give for `C=C(C)C1CCc2c(c(C)cc(O)c(=O)c2O)C1` (stereo not shown) [Compound 56, Manicol] here?
A: 6.7 µM

Q: What about the “Fold suppression PFU/GE” value (HSV-2; 20 μM) of the same molecule?
A: 314.3

Q: What about the “Fold suppression GE” value (HSV-2; 20 μM) of the same molecule?
A: 420 fold

Q: And the “Fold suppression PFU” value (HSV-2; 20 μM)?
A: 132000 fold
